ChEMBL document CHEMBL3390839, “Triazolopyrimidinones as -secretase modulators: structureactivity relationship, modulator profile, and in vivo profiling” (Medchemcomm, 2013)
≈ marks a conversion by molar mass, not a printed value.

Assays:
[1] = tested on: Liver microsome; experiment: Intrinsic clearance in human liver microsomes measured pre ug of protein; format: ADME
[2] = target: Voltage-gated inwardly rectifying potassium channel KCNH2 (Homo sapiens, UniProt Q12809); experiment: Inhibition of human ERG
Sequence of Voltage-gated inwardly rectifying potassium channel KCNH2 (Q12809 whole entry): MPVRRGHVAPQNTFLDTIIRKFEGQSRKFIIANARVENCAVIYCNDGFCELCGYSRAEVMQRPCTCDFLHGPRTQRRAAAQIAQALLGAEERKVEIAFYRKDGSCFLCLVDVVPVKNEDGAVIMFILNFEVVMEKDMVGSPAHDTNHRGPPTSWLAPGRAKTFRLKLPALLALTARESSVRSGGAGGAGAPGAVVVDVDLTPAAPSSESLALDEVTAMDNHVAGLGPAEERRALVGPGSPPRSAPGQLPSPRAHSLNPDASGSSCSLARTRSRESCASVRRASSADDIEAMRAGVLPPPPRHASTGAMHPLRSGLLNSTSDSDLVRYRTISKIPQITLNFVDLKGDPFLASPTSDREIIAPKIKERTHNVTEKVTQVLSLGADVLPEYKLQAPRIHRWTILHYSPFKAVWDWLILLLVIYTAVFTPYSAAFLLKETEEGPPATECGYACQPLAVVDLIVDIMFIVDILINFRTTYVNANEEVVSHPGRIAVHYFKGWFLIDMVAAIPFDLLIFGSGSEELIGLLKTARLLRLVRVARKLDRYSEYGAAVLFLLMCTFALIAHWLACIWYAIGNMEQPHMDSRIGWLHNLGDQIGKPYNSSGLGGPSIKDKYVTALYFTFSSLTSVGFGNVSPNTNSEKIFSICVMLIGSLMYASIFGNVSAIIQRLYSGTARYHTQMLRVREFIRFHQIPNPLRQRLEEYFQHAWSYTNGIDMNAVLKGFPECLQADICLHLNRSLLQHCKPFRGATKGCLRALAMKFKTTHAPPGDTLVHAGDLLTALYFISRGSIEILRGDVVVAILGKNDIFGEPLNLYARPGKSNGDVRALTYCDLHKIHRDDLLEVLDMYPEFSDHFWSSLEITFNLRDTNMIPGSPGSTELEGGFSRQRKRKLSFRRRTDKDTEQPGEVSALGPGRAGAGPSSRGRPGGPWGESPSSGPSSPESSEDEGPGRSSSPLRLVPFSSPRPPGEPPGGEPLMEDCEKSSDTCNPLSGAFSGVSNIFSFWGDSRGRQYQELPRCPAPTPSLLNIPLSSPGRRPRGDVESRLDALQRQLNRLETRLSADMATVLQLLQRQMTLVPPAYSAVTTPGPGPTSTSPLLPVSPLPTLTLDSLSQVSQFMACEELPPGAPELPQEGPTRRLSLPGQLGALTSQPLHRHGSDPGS

[3] = Inhibition of gamma-secretase in mouse primary cortical neurons cells assessed as amyloid beta42 production after 5 days by ELISA; format: cell-based, Cerebral cortex neuron; conditions: for IC50: Mus musculus, Cerebral cortex neuron, 120 h; for pIC50: cerebral cortex neuron
[4] = Solubility of the compound; format: physicochemical
[5] = Permeability across basolateral to apical side in human Caco2 cells; format: ADME, cell-based; conditions: for Papp B→A: Caco-2, read-out: permeability; for permeability: Caco-2
[6] = Ratio of drug level in brain to plasma in C57BL/6 mouse; format: ADME, organism-based; conditions: brain and plasma, read-out: BPR
[7] = target: Gamma-secretase; experiment: Inhibition of human gamma-secretase in HEK-APPswe cells assessed as amyloid beta42 production by electrochemiluminescence assay; format: cell-based
[8] = Permeability across apical to basolateral side in human Caco2 cells; format: ADME, cell-based; conditions: for Papp A→B: Caco-2, read-out: permeability; for permeability: Caco-2

Structure (SMILES)	CLH [1] [µL/min]	IC50 [2] [nM]	IC50 [3] [nM]	solubility ([4]; read-out: solubility) [µM]	Papp B→A [5] [×10⁻⁶ cm/s]	Kp [6]	pIC50 [7]	Papp A→B [8] [×10⁻⁶ cm/s]	permeability [5] [×10⁻⁶ cm/s]	permeability [8] [×10⁻⁶ cm/s]	pIC50 [3]	solubility [4] [µM]
COc1cc(Nc2nc3n(n2)CCC(=O)N3Cc2ccccc2C)ccc1-c1cnnc(C)c1	109	33000	39.8	< 1	6	0.07	8	14	–	–	–	–
Cc1nnc(-c2ccc(Nc3nc4n(n3)CCCC4c3ccc(F)cc3)cc2)o1 (configuration not stated)	–	–	–	–	–	–	5.9	–	–	–	–	–
COc1nc(Nc2nc3n(n2)CCCC3c2ccc(F)cc2)ccc1-n1cnc(C)c1 (configuration not stated)	–	–	–	–	–	–	7.2	–	–	–	–	–
COc1cc(Nc2nc3n(n2)CCC(=O)N3Cc2ccccc2C)ccc1-c1noc(C)n1	39	33000	–	50 (≈ 22.3 µg/mL)	12	0.81	4.8	38	–	–	–	–
COc1cc(Nc2nc3n(n2)CCC(O)N3Cc2ccccc2)ccc1-n1cnc(C)c1 (configuration not stated)	37	–	79.4	110 (≈ 47.5 µg/mL)	–	0.01	7.8	–	34	12	–	–
COc1cc(Nc2nc3n(n2)CCCN3Cc2ccccc2)ccc1-n1cnc(C)c1	82	5000	100	49 (≈ 20.4 µg/mL)	–	–	7.7	–	–	–	–	–
COc1cc(Nc2nc3n(n2)C(C2CC2)CCN3CC(C)(C)O)ccc1-n1cnc(C)c1 (stereo in doubt; 42B)	21	33000	–	42 (≈ 18.4 µg/mL)	–	–	–	–	–	–	6.9	–
COc1cc(Nc2nc3n(n2)CCC(=O)N3Cc2ccccc2)ccc1-n1cnc(C)c1	30	5700	79.4	< 1	12	0.24	7.9	36	–	–	–	–
COc1cc(Nc2nc3n(n2)CCC(=O)N3c2ccccc2)ccc1-n1cnc(C)c1	36	33000	251	2 (≈ 0.831 µg/mL)	–	–	7.4	–	–	–	–	–
COc1cc(Nc2nc3n(n2)C2(CC2)CC(=O)N3Cc2ccc(F)cc2)ccc1-n1cnc(C)c1	29	–	25.1	< 1	–	–	7.9	–	–	–	–	–
COc1cc(Nc2nc3n(n2)C(C2CC2)CC(=O)N3Cc2cc(F)ccc2F)ccc1-n1cnc(C)c1 (configuration not stated)	88	33000	15.8	< 1	–	0.11	–	–	–	–	–	–
COc1cc(Nc2nc3n(n2)CCC(=O)N3Cc2ccccc2C)ccc1-n1cnc(C)c1	114	13000	39.8	< 1	–	–	8	–	–	–	–	–
COc1cc(Nc2nc3n(n2)CCCC3c2ccc(F)cc2)ccc1-c1nc(C)no1 (configuration not stated)	–	–	–	–	–	–	6.8	–	–	–	–	–
COc1cc(Nc2nc3n(n2)CCC(=O)N3Cc2ccccc2)ccc1-n1cnc(C)n1	16	17000	794	8 (≈ 3.44 µg/mL)	–	–	7	–	–	–	–	–
COc1cc(Nc2nc3n(n2)CCC(=O)N3Cc2ccccc2C(F)(F)F)ccc1-n1cnc(C)n1	19	33000	–	–	–	0.68	7.3	–	18	45	–	–
COc1cc(Nc2nc3n(n2)CCCN3CCC2CC2)ccc1-n1cnc(C)c1	105	6200	79.4	17 (≈ 6.69 µg/mL)	–	–	7.4	–	–	–	–	–
COc1cc(Nc2nc3n(n2)C(C)CCN3CCC(C)(C)O)ccc1-n1cnc(C)c1 (configuration not stated)	47	32000	158	380 (≈ 162 µg/mL)	–	–	–	–	–	–	–	–
COc1cc(Nc2nc3n(n2)C(C)CC(=O)N3CC2CC(F)(F)C2)ccc1-n1cnc(C)c1 (configuration not stated)	101	4400	50.1	4 (≈ 1.83 µg/mL)	19	0.08	–	50	–	–	–	–

Structure (SMILES)	CLH [1] [µL/min]	IC50 [2] [nM]	IC50 [3] [nM]	solubility ([4]; read-out: solubility) [µM]	Papp B→A [5] [×10⁻⁶ cm/s]	Kp [6]	pIC50 [7]	Papp A→B [8] [×10⁻⁶ cm/s]	permeability [5] [×10⁻⁶ cm/s]	permeability [8] [×10⁻⁶ cm/s]	pIC50 [3]	solubility [4] [µM]
COc1cc(Nc2nc3n(n2)CCCC3c2ccccc2)ccc1-n1cnc(C)c1 (configuration not stated)	–	–	50.1	–	13	0.12	7.6	36	–	–	–	–
COc1cc(Nc2nc3n(n2)C(C)(C)CC(=O)N3Cc2ccc(F)cc2)ccc1-n1cnc(C)c1	50	5600	31.6	2 (≈ 0.951 µg/mL)	–	0.23	7.9	–	–	–	–	–
COc1cc(Nc2nc3n(n2)CCC(=O)N3Cc2ccccc2C)ccc1-c1cc(C)cnn1	27	33000	–	170 (≈ 77.4 µg/mL)	–	–	5	–	–	–	–	–
COc1cc(Nc2nc3n(n2)CCCC3c2ccc(F)cc2)ccc1-n1cnc(C)n1 (stereo in doubt; 14B)	–	–	–	–	–	–	7	–	–	–	6.5	–
COc1cc(Nc2nc3n(n2)CCC(=O)N3Cc2ccccc2Cl)ccc1-n1cnc(C)n1	22	33000	–	< 1	–	–	7.4	–	–	–	–	–
COc1cc(Nc2nc3n(n2)C(C)CC(=O)N3Cc2ccccc2)ccc1-n1cnc(C)c1 (stereo in doubt; 19A)	73	–	–	–	–	–	7.7	–	–	–	6.8	1 (≈ 0.444 µg/mL)
N#CCc1ccc(Nc2nc3n(n2)CCCC3c2ccc(F)cc2)cc1 (configuration not stated)	–	–	–	–	–	–	5.8	–	–	–	–	–
COc1cc(Nc2nc3n(n2)CCCC3c2ccc(F)cc2)ccc1-n1cnc(C)n1 (stereo in doubt; 14A)	–	–	–	–	–	–	7.4	–	–	–	7	–
COc1cc(Nc2nc3n(n2)CC(C)(O)CN3Cc2ccccc2)ccc1-n1cnc(C)c1 (configuration not stated)	17	23000	126	160 (≈ 71.3 µg/mL)	–	–	–	–	–	–	–	–
COc1cc(Nc2nc3n(n2)C(C)CC(=O)N3Cc2cc(F)ccc2F)ccc1-n1cnc(C)c1 (configuration not stated)	70	–	20	< 1	–	–	7.7	–	–	–	–	–
COc1cc(Nc2nc3n(n2)C(C2CC2)CCN3CCC(C)(C)O)ccc1-n1cnc(C)c1 (configuration not stated)	26	16000	100	69 (≈ 31.2 µg/mL)	–	–	–	–	–	–	–	–
COc1cc(Nc2nc3n(n2)CCC(=O)N3Cc2ccccc2C)ccc1-c1ccc(C)nn1	66	33000	–	< 1	–	–	–	–	–	–	–	–
COc1cc(Nc2nc3n(n2)CCCC3c2ccc(F)cc2)ccc1-c1cnnc(C)c1 (configuration not stated)	–	–	100	–	–	–	7.7	–	–	–	–	–
COc1cc(Nc2nc3n(n2)C(C)CCN3CC(C)(C)O)ccc1-n1cnc(C)c1 (configuration not stated)	33	33000	316	330 (≈ 136 µg/mL)	–	–	6.5	–	–	–	–	–
COc1cc(Nc2nc3n(n2)CC(C)C(=O)N3Cc2ccccc2)ccc1-n1cnc(C)c1 (configuration not stated)	84	5600	50.1	2 (≈ 0.887 µg/mL)	–	–	–	–	–	–	–	–
COc1cc(Nc2nc3n(n2)C(c2ccccc2)CCN3CC(C)(C)O)ccc1-n1cnc(C)c1 (configuration not stated)	39	26000	25.1	230 (≈ 109 µg/mL)	19	0.01	–	35	–	–	–	–
COc1cc(Nc2nc3n(n2)CC(O)CN3Cc2ccccc2)ccc1-n1cnc(C)c1 (configuration not stated)	19	28000	100	290 (≈ 125 µg/mL)	–	–	–	–	–	–	–	–
COc1cc(Nc2nc3n(n2)CCC(=O)N3Cc2ccccc2C)ccc1-c1cnc(C)nc1	94	11000	–	< 1	–	–	7.2	–	–	–	–	–
